± gives the expanded uncertainty stated by the source.
Assay: xn = mol fraction of the nth substance listed
Details: Liquid, Pycnometric method

**Q.** Which results are given for `CCCCBr` [1-bromobutane] + O=C=O?
**A.** mass density (313.1 K, 7910 kPa, x1 = 0.0461): 769 ± 4 kg/m3; mass density (313.1 K, 7950 kPa, x1 = 0.0683): 826 ± 4 kg/m3; mass density (313.1 K, 7990 kPa, x1 = 0.0245): 619 ± 4 kg/m3; mass density (313.1 K, 8000 kPa, x1 = 0.0245): 621 ± 4 kg/m3; mass density (313.1 K, 8010 kPa, x1 = 0.0461): 775 ± 4 kg/m3; mass density (313.1 K, 8030 kPa, x1 = 0.0245): 628 ± 4 kg/m3; mass density (313.1 K, 8060 kPa, x1 = 0.0683): 829 ± 4 kg/m3; mass density (313.1 K, 8070 kPa, x1 = 0.0245): 635 ± 4 kg/m3; mass density (313.1 K, 8090 kPa, x1 = 0.1495): 1001 ± 4 kg/m3; mass density (313.1 K, 8100 kPa, x1 = 0.0245): 641 ± 4 kg/m3; mass density (313.1 K, 8100 kPa, x1 = 0.0461): 780 ± 4 kg/m3; mass density (313.1 K, 8140 kPa, x1 = 0.0245): 649 ± 4 kg/m3; mass density (313.1 K, 8170 kPa, x1 = 0.0683): 832 ± 4 kg/m3; mass density (313.1 K, 8170 kPa, x1 = 0.0989): 893 ± 4 kg/m3; mass density (313.1 K, 8190 kPa, x1 = 0.0245): 656 ± 4 kg/m3; mass density (313.1 K, 8240 kPa, x1 = 0.0245): 663 ± 4 kg/m3; mass density (313.1 K, 8240 kPa, x1 = 0.0461): 786 ± 4 kg/m3; mass density (313.1 K, 8290 kPa, x1 = 0.0683): 835 ± 4 kg/m3; mass density (313.1 K, 8300 kPa, x1 = 0.0245): 671 ± 4 kg/m3; mass density (313.1 K, 8360 kPa, x1 = 0.0245): 679 ± 4 kg/m3; mass density (313.1 K, 8360 kPa, x1 = 0.0461): 791 ± 4 kg/m3; mass density (313.1 K, 8390 kPa, x1 = 0.0683): 838 ± 4 kg/m3; mass density (313.1 K, 8430 kPa, x1 = 0.0245): 687 ± 4 kg/m3; mass density (313.1 K, 8460 kPa, x1 = 0.1495): 1004 ± 4 kg/m3; mass density (313.1 K, 8500 kPa, x1 = 0.0461): 797 ± 4 kg/m3; mass density (313.1 K, 8530 kPa, x1 = 0.0245): 695 ± 4 kg/m3; mass density (313.1 K, 8540 kPa, x1 = 0.0683): 842 ± 4 kg/m3; mass density (313.1 K, 8560 kPa, x1 = 0.0989): 900 ± 4 kg/m3; mass density (313.1 K, 8620 kPa, x1 = 0.0245): 703 ± 4 kg/m3; mass density (313.1 K, 8650 kPa, x1 = 0.0461): 802 ± 4 kg/m3; mass density (313.1 K, 8660 kPa, x1 = 0.0683): 845 ± 4 kg/m3; mass density (313.1 K, 8740 kPa, x1 = 0.0245): 712 ± 4 kg/m3; mass density (313.1 K, 8790 kPa, x1 = 0.0683): 848 ± 4 kg/m3; mass density (313.1 K, 8790 kPa, x1 = 0.1495): 1008 ± 4 kg/m3; mass density (313.1 K, 8840 kPa, x1 = 0.0461): 808 ± 4 kg/m3; mass density (313.1 K, 8860 kPa, x1 = 0.0245): 720 ± 4 kg/m3; mass density (313.1 K, 8930 kPa, x1 = 0.0683): 851 ± 4 kg/m3; mass density (313.1 K, 9010 kPa, x1 = 0.0245): 729 ± 4 kg/m3; mass density (313.1 K, 9030 kPa, x1 = 0.0989): 907 ± 4 kg/m3; mass density (313.1 K, 9040 kPa, x1 = 0.0461): 814 ± 4 kg/m3; mass density (313.1 K, 9110 kPa, x1 = 0.0683): 854 ± 4 kg/m3; mass density (313.1 K, 9180 kPa, x1 = 0.0245): 738 ± 4 kg/m3; mass density (313.1 K, 9240 kPa, x1 = 0.0461): 820 ± 4 kg/m3; mass density (313.1 K, 9260 kPa, x1 = 0.0683): 858 ± 4 kg/m3; mass density (313.1 K, 9380 kPa, x1 = 0.0245): 748 ± 4 kg/m3; mass density (313.1 K, 9440 kPa, x1 = 0.0683): 861 ± 4 kg/m3; mass density (313.1 K, 9470 kPa, x1 = 0.0461): 826 ± 4 kg/m3; mass density (313.1 K, 9480 kPa, x1 = 0.0989): 913 ± 4 kg/m3; mass density (313.1 K, 9540 kPa, x1 = 0.1495): 1015 ± 4 kg/m3; mass density (313.1 K, 9580 kPa, x1 = 0.0683): 864 ± 4 kg/m3; mass density (313.1 K, 9600 kPa, x1 = 0.0245): 758 ± 4 kg/m3; mass density (313.1 K, 9710 kPa, x1 = 0.0461): 833 ± 4 kg/m3; mass density (313.1 K, 9790 kPa, x1 = 0.0683): 868 ± 4 kg/m3; mass density (313.1 K, 9850 kPa, x1 = 0.0245): 767 ± 4 kg/m3; mass density (313.1 K, 9950 kPa, x1 = 0.1495): 1018 ± 4 kg/m3; mass density (313.1 K, 9990 kPa, x1 = 0.0461): 840 ± 4 kg/m3; mass density (313.1 K, 10020 kPa, x1 = 0.0989): 920 ± 4 kg/m3; mass density (313.1 K, 10150 kPa, x1 = 0.0245): 778 ± 4 kg/m3; mass density (313.1 K, 10330 kPa, x1 = 0.1495): 1022 ± 4 kg/m3; mass density (313.1 K, 10450 kPa, x1 = 0.0245): 788 ± 4 kg/m3; mass density (313.1 K, 10600 kPa, x1 = 0.0989): 927 ± 4 kg/m3; mass density (313.1 K, 10770 kPa, x1 = 0.1495): 1026 ± 4 kg/m3; mass density (313.1 K, 10840 kPa, x1 = 0.0245): 799 ± 4 kg/m3; mass density (313.1 K, 11180 kPa, x1 = 0.0989): 933 ± 4 kg/m3; mass density (313.1 K, 11240 kPa, x1 = 0.1495): 1030 ± 4 kg/m3; mass density (313.1 K, 11280 kPa, x1 = 0.0245): 810 ± 4 kg/m3; mass density (313.1 K, 11690 kPa, x1 = 0.1495): 1033 ± 4 kg/m3; mass density (313.1 K, 11760 kPa, x1 = 0.0245): 821 ± 4 kg/m3; mass density (313.1 K, 11850 kPa, x1 = 0.0989): 941 ± 4 kg/m3; mass density (313.1 K, 12120 kPa, x1 = 0.1495): 1036 ± 4 kg/m3; mass density (313.1 K, 12160 kPa, x1 = 0.0989): 944 ± 4 kg/m3; mass density (313.1 K, 12320 kPa, x1 = 0.0245): 833 ± 4 kg/m3; mass density (313.1 K, 12560 kPa, x1 = 0.0989): 948 ± 4 kg/m3; mass density (313.1 K, 12600 kPa, x1 = 0.1495): 1040 ± 4 kg/m3; mass density (313.1 K, 12960 kPa, x1 = 0.0245): 845 ± 4 kg/m3; mass density (313.1 K, 13090 kPa, x1 = 0.1495): 1044 ± 4 kg/m3; mass density (313.1 K, 13640 kPa, x1 = 0.1495): 1047 ± 4 kg/m3; mass density (313.1 K, 13700 kPa, x1 = 0.0245): 857 ± 4 kg/m3; mass density (313.1 K, 14170 kPa, x1 = 0.1495): 1051 ± 4 kg/m3; mass density (313.1 K, 14530 kPa, x1 = 0.0245): 870 ± 4 kg/m3; mass density (313.1 K, 14740 kPa, x1 = 0.1495): 1056 ± 4 kg/m3; mass density (313.1 K, 14980 kPa, x1 = 0.0245): 876 ± 4 kg/m3; mass density (313.1 K, 15070 kPa, x1 = 0.1495): 1058 ± 4 kg/m3; mass density (313.1 K, 15150 kPa, x1 = 0.0245): 879 ± 4 kg/m3; mass density (313.1 K, 15320 kPa, x1 = 0.1495): 1060 ± 4 kg/m3; mass density (316.1 K, 8270 kPa, x1 = 0.0245): 528 ± 4 kg/m3; mass density (316.1 K, 8280 kPa, x1 = 0.0245): 532 ± 4 kg/m3; mass density (316.1 K, 8300 kPa, x1 = 0.0245): 537 ± 4 kg/m3; mass density (316.1 K, 8320 kPa, x1 = 0.0245): 543 ± 4 kg/m3; mass density (316.1 K, 8340 kPa, x1 = 0.0245): 549 ± 4 kg/m3; mass density (316.1 K, 8360 kPa, x1 = 0.0245): 556 ± 4 kg/m3; mass density (316.1 K, 8380 kPa, x1 = 0.0245): 562 ± 4 kg/m3; mass density (316.1 K, 8410 kPa, x1 = 0.0245): 572 ± 4 kg/m3; mass density (316.1 K, 8460 kPa, x1 = 0.0245): 582 ± 4 kg/m3
